Results reported in US20240247289A1, “ANTIBIOTIC FREE FERMENTATIONS, SYSTEMS AND METHODS FOR ACHIEVING ANTIBIOTIC FREE FERMENTATIONS, AND FE[…]-PRODUCTS GENERATED BY ANTIBIOTIC FREE FERMENTATIONS” (POET Research, Inc., priority 2023, published 2024).

Key:
lactic acid bacteria [1] = conditions: RSH fermentation, infected samples, formic acid alone 100-400 ppm (FIG. 2)
Method: (§1) Saccharomyces cerevisiae, yeast was added to a yeast propagation set up as follows. Ground corn was mixed with “pre-blend” (a mixture of the waters from various streams that are reused in an ethanol production facility) in an appropriate ratio to obtain slurry (mash) with 35 percent dry solids (including the solids contributed by the pre-blend water). “Preblend” was used as make up water in these studies to simulate the composition of mash, employing an exemplary embodiment provided herein, as it would be in a commercial ethanol production facility. The pH of the corn and “pre blend” slurry was approximately 4.5-4.8. An enzyme blend for raw starch hydrolysis was added to the slurry. Urea (50 percent liquor) was added to the slurry to give a final concentration of approximately 1000 ppm urea. The slurry was mixed in 100 milliliter wide mouth bottles at 60 milliliters per bottle. The bottles were covered with a bottle cap with a 1/16″ hole drilled into the top for gas release following addition of enzyme and the yeast and placed stationary in a water bath. […]
(§2) The slurry was mixed in 100 milliliter wide mouth bottles at 60 milliliters per bottle. […] Bottles were mixed well, and samples were withdrawn at various intervals during the course of fermentation and analyzed for sugars, organic acids and ethanol using high performance liquid chromatography (HPLC).

Saccharomyces cerevisiae [2] = conditions: RSH fermentation, infected samples, formic acid alone 100-400 ppm, compared to other infected samples (FIG. 1)
Method: as §1, §2

lactic acid bacteria [3] = conditions: cook process fermentation, infected, formic acid 100-400 ppm without hop acids (FIG. 4)
Method: (§3) Saccharomyces cerevisiae, was added to a yeast propagation set up as follows. Liquefied corn slurry acquired from a biorefinery was diluted in an appropriate ratio to obtain slurry (mash) with 20 percent dry solids (including the solids contributed by the pre-blend water). The pH of the slurry liquefact was approximately 5.0-5.5. The enzyme blend for fermentation was added to the slurry. Urea (50 percent liquor) was added to the slurry to give a final concentration of approximately 1000 ppm urea. The slurry was dispensed in 100 milliliter wide mouth bottles at 60 milliliters per bottle. The bottles were covered with a bottle cap with a 1/16″ hole drilled into the top for gas release following addition of enzyme and inoculation of the necessary organisms and placed stationary in a water bath. The fermentation temperature was held constant at 32.2 degrees Celsius for 8-16 hours. This yeast propagation was then used to inoculate fermentations including yeast at a ratio level of 2% total fermentation volume.
(§4) Liquefied corn slurry was acquired from a biorefinery with 30-35% percent dry solids (including the solids contributed by the pre-blend water). The pH of the slurry was approximately 5.0. The enzyme blend for fermentation was added to the slurry. Urea (50 percent liquor) was added to the slurry to give a final concentration of approximately 1000 ppm urea. The slurry was mixed in 100 milliliter wide mouth bottles at 60 milliliters per bottle. The bottles were covered with a bottle cap with a 1/16″ hole drilled into the top for gas release following addition of enzyme and inoculation of the necessary organisms and placed stationary in a water bath. The fermentation temperature was held constant at 33 degrees Celsius for 72 hours. Bottles were mixed well, and samples were withdrawn at various intervals during the course of fermentation and analyzed for sugars, organic acids and ethanol using high performance liquid chromatography (HPLC).

Saccharomyces cerevisiae [4] = conditions: cook process fermentation, infected
Method: as §3, §4

SMILES: O=CO [formic acid]
- ppm lactic acid at 88 hours (lactic acid bacteria [1]): reduced lactic acid ppm at 88 hours fermentation in a dose dependent method
- % v/v ethanol at 88 hours (Saccharomyces cerevisiae [2]): substantially reduced % v/v ethanol
- Ppm lactic acid at 72 hours (lactic acid bacteria [3]): decreased dose dependently
- % v/v ethanol at 72 hours, vs Phibro Xact 2.5 ppm (Saccharomyces cerevisiae [4]; formic acid treated samples, at most dosages (FIG. 3)): greater than the % v/v ethanol generated by fermentation with Phibro Xact
- % v/v ethanol at 72 hours (Saccharomyces cerevisiae [4]; increasing doses of formic acid alone 100-400 ppm (FIG. 3)): increase in % v/v ethanol
